Results published in the NIST ThermoML archive (doi:10.1021/je2001446).
“And” between values parts separate entries of the source, which are not always exact repeats. Equal values may be shown once. ± gives the expanded uncertainty stated by the source.

Tests used:
[1] = Molar enthalpy of transition or fusion; conditions: Crystal
[2] = Crystal

Row | SMILES | Molar enthalpy of transition or fusion [1] [kcal/mol] | Normal melting temperature [2]
1 | CCCC[n+]1cccc(C)c1.[Cl-] [1-butyl-3-methylpyridinium chloride] | 6.57 ± 0.765 | 111.4 ± 0.8 °C and 109.8 ± 2.5 °C
2 | CCCCCCCCCC[n+]1cccc(C)c1.[Cl-] [1-decyl-3-methylpyridinium chloride] | 3.44 ± 0.741 | 79.4 ± 0.8 °C and 75.6 ± 2.5 °C
3 | CCCCCCCCCCCC[n+]1cccc(C)c1.[Cl-] [1-dodecyl-3-methylpyridinium chloride] | 8.87 ± 0.789 | 87.7 ± 0.8 °C and 86.8 ± 2.5 °C
4 | CCCCCC[n+]1cccc(C)c1.[Cl-] [1-hexyl-3-methylpyridinium chloride] | 4.71 ± 0.741 | 82.0 ± 0.8 °C and 80 ± 2.5 °C

Results, then the compound that gave them:

Row | Molar enthalpy of transition or fusion [1] [kcal/mol] | Normal melting temperature [2] | SMILES
5 | 9.63 ± 0.813 | 110 ± 0.8 °C and 110.0 ± 2.5 °C | CCCCCCCCCCCCCCCC[n+]1cccc(C)c1.[Cl-] [1-hexadecyl-3-methylpyridinium chloride]
6 | 3.56 ± 0.741 | 80.1 ± 0.8 °C and 79.2 ± 2.5 °C | CCCCCCCC[n+]1cccc(C)c1.[Cl-] [1-octyl-3-methylpyridinium chloride]
7 | 10.2 ± 0.813 | 93.7 ± 0.8 °C and 94.6 ± 2.5 °C | CCCCCCCCCCCCCC[n+]1cccc(C)c1.[Cl-] [1-tetradecyl-3-methylpyridinium chloride]
8 | 6.72 ± 0.765 | 112.2 ± 0.8 °C and 113 ± 2.5 °C | CCCCCCCCCCCCCCCCCC[n+]1cccc(C)c1.[Cl-] [3-methyl-1-octadecylpyridinium chloride]
